In ChEMBL document CHEMBL1127116, “Synthesis and structure-activity relationships of a novel series of non-peptide AT2-selective angiotensin II receptor antagonists” (Bioorg Med Chem Lett, 1993):

Columns and labels:
[1] = target: T1, Type-2 angiotensin II receptor (Rattus norvegicus, UniProt P35351); assay: Inhibition of Angiotensin II receptor, type 2 in rat midbrain using [125I]-Sar1,Ile8 angiotensin II binding assay
T1 sequence (P35351 whole entry): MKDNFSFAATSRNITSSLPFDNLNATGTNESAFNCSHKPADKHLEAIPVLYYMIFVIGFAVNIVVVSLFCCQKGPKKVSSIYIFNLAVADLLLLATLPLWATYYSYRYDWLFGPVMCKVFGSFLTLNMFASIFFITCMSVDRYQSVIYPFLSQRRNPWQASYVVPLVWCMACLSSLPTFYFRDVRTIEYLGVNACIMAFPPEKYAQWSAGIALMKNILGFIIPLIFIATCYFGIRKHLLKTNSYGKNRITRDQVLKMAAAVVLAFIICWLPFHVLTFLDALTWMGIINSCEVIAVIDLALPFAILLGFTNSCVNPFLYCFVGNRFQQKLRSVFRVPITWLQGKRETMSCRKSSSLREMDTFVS

[2] = target: T2, Type-1 angiotensin II receptor (Oryctolagus cuniculus, UniProt P34976); assay: Inhibition of Angiotensin II receptor, type 1 in rabbit aorta using [125I-Sar1,Ile8] angiotensin II binding assay; format: tissue-based
T2 sequence (P34976 whole entry): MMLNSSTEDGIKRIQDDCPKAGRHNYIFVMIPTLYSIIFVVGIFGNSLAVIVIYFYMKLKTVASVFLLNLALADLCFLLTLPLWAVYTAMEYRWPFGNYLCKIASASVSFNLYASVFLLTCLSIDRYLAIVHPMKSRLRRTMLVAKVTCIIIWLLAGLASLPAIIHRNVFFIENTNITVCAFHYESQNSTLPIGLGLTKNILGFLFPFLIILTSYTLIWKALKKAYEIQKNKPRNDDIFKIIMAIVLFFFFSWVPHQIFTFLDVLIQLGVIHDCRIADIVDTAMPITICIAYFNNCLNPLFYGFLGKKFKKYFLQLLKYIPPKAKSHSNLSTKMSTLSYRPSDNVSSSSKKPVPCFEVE

[3] = Half life in rats; format: ADME, organism-based; settings: rat, in vivo
[4] = Oral bioavailability in rat; format: ADME, organism-based; settings: in vivo
[5] = target: T2, Type-1 angiotensin II receptor; assay: Inhibition of angiotensin Angiotensin II receptor, type 1 in rabbit aorta using [125I-Sar1,Ile8] angiotensin II binding assay; format: tissue-based
[6] = target: T1, Type-2 angiotensin II receptor; assay: Compound was evaluated for inhibition of Angiotensin II receptor, type 2 in rat midbrain AT2 assay; format: tissue-based

Row | IC50 [1] | IC50 [2] | IC50 [5] | SMILES | other results
1 | 40 nM | > 10 µM | – | CC(C)N(C(=O)N1CCN(C(=O)N(c2ccccc2)c2ccccc2)[C@H](C(=O)O)C1)C(C)C | –
2 | – | > 100 µM | – | O=C(O)[C@@H]1CN(C(=O)N(c2ccccc2)c2ccccc2)CCN1C(=O)N(c1ccccc1)c1ccccc1 | half-life [3]: > 360 min; bioavailability [4]: 21%
3 | 15 nM | – | > 100 µM | CC1CN(C(=O)N(c2ccccc2)c2ccccc2)CCN1C(=O)N(c1ccccc1)c1ccccc1 (stereo unspecified) | –
4 | 12 nM | 21 µM | – | CCCCCN(CCCCC)C(=O)N1CCN(C(=O)N(c2ccccc2)c2ccccc2)[C@H](C(=O)OC)C1 | –
5 | 23 nM | 25 µM | – | CCCCCN(CCCCC)C(=O)N1CCN(C(=O)N(c2ccccc2)c2ccccc2)C[C@H]1C(=O)O | –
6 | 37 nM | – | > 100 µM | O=C(N1CCN(C(=O)N(c2ccccc2)c2ccccc2)CC1)N(c1ccccc1)c1ccccc1 | –
7 | 1.1 nM | > 100 µM | – | CCCCCN(CCCCC)C(=O)N1CCN(C(=O)C(c2ccccc2)c2ccccc2)C(C(=O)O)C1 (stereo unspecified) | –
8 | 0.7 nM | – | 10 µM | CCCCCN(CCCCC)C(=O)N1CCN(C(=O)N(c2ccccc2)c2cccc(C)c2)[C@H](C(=O)O)C1 | –
9 | – | – | – | COc1ccc(Cn2cnc3c2C[C@@H](C(=O)O)N(C(=O)C(c2ccccc2)c2ccccc2)C3)cc1C | IC50 [6]: 38 nM
10 | 230 nM | – | 10 µM | CCCCCN(CCCCC)C(=O)N1CCN(C(=O)N(c2ccccc2)c2ccc(O)cc2)[C@H](C(=O)O)C1 | –
11 | 70 nM | – | 12.5 µM | CCCCCN(CCCCC)C(=O)N1CCN(C(=O)N(c2ccccc2)c2ccccc2)CC1 | –
12 | 0.4 nM | – | 5.1 µM | CCCCCN(CCCCC)C(=O)N1CCN(C(=O)N(c2ccccc2)c2cccc(Cl)c2)[C@H](C(=O)O)C1 | –
13 | 20 nM | 45 µM | – | CCCCCN(C(=O)N1CCN(C(=O)N(c2ccccc2)c2ccccc2)C[C@H]1C(=O)O)c1ccccc1 | –
14 | 82 nM | > 30 µM | – | CCCCCN(CCCCC)C(=O)N1CCN(C(=O)N(CCCCC)CCCCC)[C@H](C(=O)O)C1 | –
15 | 2.7 nM | – | 5.4 µM | CCCCCN(CCCCC)C(=O)N1CCN(C(=O)N(c2ccccc2)c2ccc(Br)cc2)[C@H](C(=O)O)C1 | –
16 | 7 nM | – | 8.5 µM | CCCCCN(CCCCC)C(=O)N1CCN(C(=O)N(c2ccccc2)c2ccc(I)cc2)[C@H](C(=O)O)C1 | –
17 | 7.8 nM | – | > 10 µM | CCCCCN(CCCCC)C(=O)N1CCN(C(=O)N(c2ccccc2)c2cccc(OC)c2)[C@H](C(=O)O)C1 | –
18 | 10 nM | – | > 100 µM | CC1CN(C(=O)N(c2ccccc2)c2ccccc2)C(C)CN1C(=O)N(c1ccccc1)c1ccccc1 (stereo unspecified) | –
19 | 15 nM | – | > 10 µM | CCCCCN(CCCCC)C(=O)N1CCN(C(=O)N(c2ccccc2)c2ccccc2)[C@H](CCO)C1 | –
20 | 15 nM | > 30 µM | – | CCCCCN(C)C(=O)N1CCN(C(=O)N(c2ccccc2)c2ccccc2)[C@H](C(=O)O)C1 | –
21 | 35 nM | – | > 10 µM | CCCCCN(CCCCC)C(=O)N1CCN(C(=O)N(c2ccccc2)c2ccc(C(=O)OCC)cc2)[C@H](C(=O)O)C1 | –
22 | 180 nM | – | 1.4 µM | CCCCCN(CCCCC)C(=O)N1CCN(C(=O)N(c2ccccc2)c2ccc(C(=O)O)cc2)[C@H](C(=O)O)C1 | –
23 | 170 nM | > 10 µM | – | CN(C(=O)N1CCN(C(=O)N(c2ccccc2)c2ccccc2)[C@H](C(=O)O)C1)c1ccccc1 | –
24 | 0.6 nM | – | 59 µM | CCCCCN(CCCCC)C(=O)N1CCN(C(=O)N(c2ccccc2)c2cccc(Br)c2)[C@H](C(=O)O)C1 | –

Row | SMILES | IC50 [1] | IC50 [2] | IC50 [5] | other results
25 | CCCCCN(CCCCC)C(=O)N1CCN(C(=O)N(c2ccccc2)c2ccccc2)[C@H](CO)C1 | 30 nM | > 10 µM | – | –
26 | CCCCCN(CCCCC)C(=O)N1CCN(C(=O)N(c2ccccc2)c2ccccc2)[C@@H](C(=O)O)C1 | 4.5 nM | > 10 µM | – | –
27 | CCCCCN(CCCCC)C(=O)N1CCN(C(=O)N(c2ccccc2)c2ccccc2)[C@H](C(=O)O)C1 | 1.4 nM | – | 39 µM | –
28 | CCCCCN(CCCCC)C(=O)N1CCN(C(=O)N(c2ccccc2)c2ccccc2)C(C(=O)O)C1 (stereo unspecified) | 1.7 nM | > 30 µM | – | –
